One assay concerns mouse locomotor activity. Kind of assay: Reduction of mouse locomotor activity (hypolocomotion). The class given is in vivo, mouse (male, CF-1). The settings on record: 20 min, sc, horizontal activity counts collected 10 to 20 minutes after dosing. The protocol:
The antipsychotic activity of the compounds of the invention was further established by a determination of the compounds' ability to reduce mouse locomotor activity according to the method of Martin and Bendensky, J. Pharmacol. Exp. Therap. 229: 706-711, 1984, in which mice (male, CF-1, Charles River, 20-30 g) were injected with vehicle or various doses of each drug and locomotor activity was measured for 30 minutes using automated infrared activity monitors (Omnitech-8×8 inch open field) located in a darkened room. ED50 's were calculated from the horizontal activity counts collected from 10 to 20 minutes after dosing using a nonlinear regression analysis with inverse prediction.

The next assay has as its target T1, dopamine D2 receptor (Rattus norvegicus, UniProt P61169).
T1 construct: homogenized rat striatal brain tissue; from tissue; host or cells: rat striatum (homogenate)
Kind of assay: Affinity for the dopamine D2 receptor (3H-quinpirole, rat striatal brain tissue homogenate). The class given is binding. To be noted: homogenized rat striatal brain tissue. The protocol: Affinity for the dopamine D2 receptor was established by a modification of the standard experimental test procedure of Seemen and Schaus, European Journal of Pharmacology 203: 105-109, 1991, wherein homogenized rat striatal brain tissue is incubated with ^3 H-quinpirole and various concentrations of test compound, filtered and washed and counted in a Betaplate scintillation counter.

The test system of a further assay is dopamine autoreceptor. Kind of assay: GBL model: effect on synthesis of dopamine (inhibition of dopa accumulation). The class given is in vivo, rat (male, Sprague-Dawley). The settings on record: rat, 10 mg/kg, sc; GBL 750 mg/kg ip, NSD-1015 100 mg/kg ip. The protocol: The effect of the compounds of the invention on the synthesis of dopamine was established by the method of Walters and Roth, Naunyn-Schmiedeberg's Arch. Pharmacol. 296:5-14, 1976, in which rats (male, Sprague-Dawley, Charles River, 200-350 g) were administered vehicle or test drug ten minutes prior to the administration of gamma butyrolactone (GBL; 750 mg/kg, ip to inhibit dopaminergic impulse flow) and 20 minutes prior to NSD-1015 (100 mg/kg, ip to prevent the conversion of dopa to dopamine). Thirty minutes after NSD-1015 all rats were decapitated and the nucleus accumbens and the striatum were removed for analysis. Following perchloric acid extraction of the tissue, the extracts were placed over alumina columns to collect and concentrate dopa and other catechols. This eluate was then subjected to HPLC analysis using electrochemical detection to quantify the levels of dopa present. Dopamine autoreceptor agonists, under the conditions used above, inhibit dopa accumulation. […]

T1 sequence (P61169 whole entry): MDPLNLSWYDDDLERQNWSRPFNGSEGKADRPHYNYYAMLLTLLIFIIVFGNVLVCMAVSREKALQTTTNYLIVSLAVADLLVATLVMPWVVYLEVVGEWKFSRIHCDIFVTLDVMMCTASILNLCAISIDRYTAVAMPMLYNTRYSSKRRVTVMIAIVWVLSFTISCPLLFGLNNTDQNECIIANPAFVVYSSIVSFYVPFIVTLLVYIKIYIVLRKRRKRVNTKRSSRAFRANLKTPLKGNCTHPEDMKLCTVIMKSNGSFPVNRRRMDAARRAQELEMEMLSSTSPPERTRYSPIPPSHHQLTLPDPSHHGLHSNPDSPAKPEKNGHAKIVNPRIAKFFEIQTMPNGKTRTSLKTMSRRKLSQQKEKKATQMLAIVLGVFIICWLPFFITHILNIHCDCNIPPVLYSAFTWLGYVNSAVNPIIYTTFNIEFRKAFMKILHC

For orientation: ED50 means the midpoint of the dose-response relation. Lower therefore signals greater potency. A word on the IC50: it is the point on the concentration scale where inhibition reaches its midpoint. Higher therefore signals weaker potency in that assay. Consider `CN(C)c1cccc(OCCCNC[C@H]2COc3ccc4c(c3O2)CC(=O)N4)c1` [Example 11], for which the median effective dose (ED50) in the assay with mouse locomotor activity was determined as 0.0138 mg/kg. Also, on dopamine D2 receptor, the IC50 was determined as 1.3 nM.

`O=C1Cc2c(ccc3c2O[C@@H](CNCc2ccccc2)CO3)N1` [Example 1]: the “inhibition of dopa accumulation” value with dopamine autoreceptor amounted to 67.5%. Further, it took a dose of 0.0031 mg/kg to reach the 50% effect level with mouse locomotor activity (ED50). In addition, on dopamine D2 receptor, the IC50 turned out to be 0.37 nM.

`COc1ccc(CNC[C@H]2COc3ccc4c(c3O2)CC(=O)N4)cc1` [Example 17, 2-[(4-Methoxy-benzylamino)-methyl]-2,3,8,9-tetrahydro-7H-1,4-dioxino[2,3-e]indol-8-one]: the 50% effect level with mouse locomotor activity (ED50) was put at a dose of 0.027 mg/kg. At dopamine D2 receptor, this compound displayed an IC50 of 0.68 nM.

Regarding `O=C1Cc2c(c(F)cc3c2O[C@@H](CNCCCc2c[nH]c4ccccc24)CO3)N1` [Example 39, 6-Fluoro-2-{[3-(1H-indol-3-yl)-propylamino]-methyl}-2,3,8,9-tetrahydro-7H-1,4-dioxino[2,3-e]indol-8-one], the ED50 with mouse locomotor activity amounted to 0.064 mg/kg. Besides, the concentration for half-maximal inhibition (IC50) against dopamine D2 receptor was determined as 0.78 nM.

Compound `O=C1Cc2c(ccc3c2O[C@@H](CNCc2cccs2)CO3)N1` [Example 12, 2-{[(Thionphen-2-ylmethyl)-amino]-methyl}-2,3,8,9-tetrahydro-7H-1,4-dioxino[2,3-e]indol-8-one] came in with a 50% effective dose (ED50) in the assay with mouse locomotor activity of 0.0005 mg/kg. At dopamine D2 receptor, this compound registered an IC50 of 0.51 nM.
